Measured values taken from patent US6653081B2, “Methods for monitoring antiretroviral therapy and guiding therapeutic decision in the treatment of HIV/AIDS” (ViroLogic, Inc., priority 2000, dated 2003).

Test system: RTV-010829/245V
Test: Phenotypic susceptibility assay, RTV-010829/245V
Format: cell-based, HIV
Settings: RTV-010829 with V245E reverted
Excerpt: (§1) The resistance test vectors containing a functional luciferase gene cassette were constructed and host cells were transfected with the resistance test vector DNA. The resistant test vectors contained patient-derived reverse transcriptase and protease sequences that were either susceptible or resistant to the antiretroviral agents, such as nucleoside reverse transcriptase inhibitors, (NRTIs) non-nucleoside reverse transcriptase inhibitors […] protease inhibitors. The resistance test vector viral particles produced by transfecting the resistance test vector DNA into host cells, either in the presence or absence of PRIs, were used to infect target host cells grown either in the absence of NRTIs or NNRTIs, or in the presence of increasing concentrations of the drug. The amount of luciferase activity produced in infected target host cells in the presence of varying concentrations of drug was compared to the amount of luciferase produced in infected target host cells in the absence of drug. “Drug resistance” was measured as the amount of drug required to inhibit by 50% the luciferase activity detected in the absence of drug (inhibitory concentration 50%, IC50). The IC50 values were determined by plotting percent drug inhibition vs. log10 drug concentration. Stimulation of viral replication was measured as the percent increase in luciferase activity detected when infection occurs in the presence of drug as compared to in the absence of drug.
(§2) Host cells were seeded in 10-cm-diameter dishes and were transfected several days after plating with resistance test vector plasmid DNA and the envelope expression vector. Transfections were performed using a calcium-phosphate precipitation procedure. The cell culture media containing the DNA precipitate was replaced with fresh medium, from one to 24 hours, after transfection. Cell culture media containing resistance test vector viral particles was harvested one to four days after transfection and was passed through a […] filter before being used to infect target host cells, or being stored at −80° C. HIV capsid protein (p24) levels in the harvested cell culture media were determined by an EIA method as described by the manufacturer (SAIC; Frederick, Md.). Before infection, target cells (293 and 293/T) were plated in cell culture media. Control infections were performed using cell culture media from mock transfections (no DNA) or transfections containing the resistance test vector plasmid DNA without the envelope expression plasmid. One to three or more days after infection, the media was removed and cell lysis buffer (Promega) was added to each well. Cell lysates were assayed for luciferase activity (FIG. 3). The inhibitory effect of the drug was determined using the following equation:
(§3) % luciferase inhibition=1−(RLUluc[drug]÷RLUluc)×100
(§4) where RLUluc [drug] is the Relative Light Unit of luciferase activity in infected cells in the presence of drug, and RLUluc is the Relative Light Unit of luciferase activity in infected cells in the absence of drug. IC50values were obtained from the sigmoidal curves that were generated from the data by plotting the percent inhibition of luciferase activity vs. the log10 drug concentration. The percent luciferase stimulation is the negative of the % inhibition calculated using the formula above.
(§5) A resistance test vector containing all of the mutations present in RTV-010829 except for the V245E mutation (RTV-010829/245V) was constructed and tested using the phenotypic assay described earlier. The results were compared to those determined using the parent RTV-010829. We determined the pattern of phenotypic susceptibility to the NNRTIs, delavirdine, nevirapine and efavirenz, in the reverted vector RTV-010829/245V. […] A resistance test vector containing all of the mutations present in RTV-010829 except for the I270M (RTV-010829/270I) was constructed and tested using the phenotypic assay described earlier. […]

| SMILES | drug-dependent stimulation of viral replication [%] | reductions in susceptibility compared to wild type control RTV [fold] |
| --- | --- | --- |
| O=C1Nc2ccc(Cl)cc2[C@@](C#CC2CC2)(C(F)(F)F)O1 [efavirenz] | ~60 | 189 |
| CC(C)Nc1cccnc1N1CCN(C(=O)c2cc3cc(NS(C)(=O)=O)ccc3[nH]2)CC1 [delavirdine] | ~60 | 182 |
| Cc1ccnc2c1NC(=O)c1cccnc1N2C1CC1 [nevirapine] | ~80 | 505 |

Test system: RTV-011073/241V
Test: Phenotypic susceptibility assay, RTV-011073/241V
Format: cell-based, HIV
Settings: RTV-011073 with V241S reverted
Excerpt: as §1, §2, §3, §4
A resistance test vector containing all of the mutations present in RTV-011073 except for the V241S and the T277K was constructed and tested using the phenotypic assay described earlier. The results were compared to those determined using the parent RTV-011073. We determined the pattern of phenotypic susceptibility to the NNRTIs, delavirdine, nevirapine and efavirenz, in the reverted vector RTV-011073/241V/277T. […] A resistance test vector containing all of the mutations present in RTV-011073 except for the V241S was constructed and tested using the phenotypic assay described earlier. The results were compared to those determined using the parent RTV-011073. […]

| SMILES | drug-dependent stimulation of viral replication | reductions in susceptibility compared to wild type control RTV [fold] |
| --- | --- | --- |
| O=C1Nc2ccc(Cl)cc2[C@@](C#CC2CC2)(C(F)(F)F)O1 [efavirenz] | no longer negative inhibition | 54 |
| CC(C)Nc1cccnc1N1CCN(C(=O)c2cc3cc(NS(C)(=O)=O)ccc3[nH]2)CC1 [delavirdine] | no longer negative inhibition | 59 |
| Cc1ccnc2c1NC(=O)c1cccnc1N2C1CC1 [nevirapine] | no longer negative inhibition | 146 |

Test system: RTV-014451
Test: Phenotypic susceptibility assay, RTV-014451
Format: cell-based, HIV
Settings: patient 014451, week 32
Excerpt: as §1, §2, §3, §4
Resistance test vectors were constructed as described in Example 1 from virus samples obtained from an individual patient at two separate time points separated by a 32-week period. The prior and current treatment regimens are unknown. Isolation of viral RNA and RT/PCR was used to generate patient derived segments (PDS) that comprised viral sequences coding for all of PR and aa […] of RT from […]. The PDS were inserted into an indicator gene viral vector to generate resistance test vectors designated RTV-014459 and RTV-014451. […]

| SMILES | drug-dependent stimulation of viral replication [%] |
| --- | --- |
| O=C1Nc2ccc(Cl)cc2[C@@](C#CC2CC2)(C(F)(F)F)O1 [efavirenz] | ~70 |
| CC(C)Nc1cccnc1N1CCN(C(=O)c2cc3cc(NS(C)(=O)=O)ccc3[nH]2)CC1 [delavirdine] | ~90 |
| Cc1ccnc2c1NC(=O)c1cccnc1N2C1CC1 [nevirapine] | ~100 |

Same assay, conditions: patient 014451, week 32; K101E, V106M, G190A on 241 backbone

| SMILES | decrease in susceptibility [fold] |
| --- | --- |
| O=C1Nc2ccc(Cl)cc2[C@@](C#CC2CC2)(C(F)(F)F)O1 [efavirenz] | > 450 |
| CC(C)Nc1cccnc1N1CCN(C(=O)c2cc3cc(NS(C)(=O)=O)ccc3[nH]2)CC1 [delavirdine] | 41 |
| Cc1ccnc2c1NC(=O)c1cccnc1N2C1CC1 [nevirapine] | > 600 |

Test system: RTV-010829/245V-297E
Test: Phenotypic susceptibility assay, RTV-010829/245V-297E
Format: cell-based, HIV
Settings: RTV-010829 with V245E to E297K reverted
Excerpt: as §1, §2, §3, §4, §5

| SMILES | drug-dependent stimulation of viral replication |
| --- | --- |
| O=C1Nc2ccc(Cl)cc2[C@@](C#CC2CC2)(C(F)(F)F)O1 [efavirenz] | no drug-dependent stimulation |
| CC(C)Nc1cccnc1N1CCN(C(=O)c2cc3cc(NS(C)(=O)=O)ccc3[nH]2)CC1 [delavirdine] | no drug-dependent stimulation |
| Cc1ccnc2c1NC(=O)c1cccnc1N2C1CC1 [nevirapine] | no drug-dependent stimulation |

Same assay, conditions: RTV-010829 with V245E, I270M, V276I, R277K, V292I, V293I, E297K reverted

| SMILES | reductions in susceptibility compared to wild type control RTV [fold] |
| --- | --- |
| O=C1Nc2ccc(Cl)cc2[C@@](C#CC2CC2)(C(F)(F)F)O1 [efavirenz] | 76 |
| CC(C)Nc1cccnc1N1CCN(C(=O)c2cc3cc(NS(C)(=O)=O)ccc3[nH]2)CC1 [delavirdine] | 198 |
| Cc1ccnc2c1NC(=O)c1cccnc1N2C1CC1 [nevirapine] | 233 |

Test system: RTV-1033-3/283L/284R/286T/293V/297E
Test: Phenotypic susceptibility assay, RTV-1033-3/283L/284R/286T/293V/297E
Format: cell-based, HIV
Settings: RTV-1033-3 with L283I, R284K, T286A, V293I and E297K reverted
Excerpt: as §1, §2, §3, §4
A resistance test vector containing all of the mutations present in RTV-1033-3 except for L283I, R284K, T286A, V293I and E297K (RTV-1033-3/283L/284R/286T/293V/297E) was constructed and tested using the phenotypic assay described earlier. The results were compared to those determined using the parent RTV-1033-3. We determined the pattern of phenotypic susceptibility to the NNRTIs, delavirdine, nevirapine and efavirenz, in the reverted vector, RTV-1033-3/283L/284R/286T/293V/297E.

| SMILES | drug-dependent stimulation of viral replication | reductions in susceptibility compared to wild type control RTV [fold] |
| --- | --- | --- |
| O=C1Nc2ccc(Cl)cc2[C@@](C#CC2CC2)(C(F)(F)F)O1 [efavirenz] | no drug-dependent stimulation | 5 |
| CC(C)Nc1cccnc1N1CCN(C(=O)c2cc3cc(NS(C)(=O)=O)ccc3[nH]2)CC1 [delavirdine] | no drug-dependent stimulation | 16 |
| Cc1ccnc2c1NC(=O)c1cccnc1N2C1CC1 [nevirapine] | no drug-dependent stimulation | 144 |

Test system: K103N/M230L-RTV
Test: Phenotypic susceptibility assay, K103N/M230L-RTV
Format: cell-based, HIV-1
Settings: site-directed K103N + M230L
Excerpt: as §1, §2, §3, §4
The M230L mutation was tested alone and is described in Example 3 above. A resistance test vector containing the M230L mutation and the K103N mutation (K103N/M230L-RTV) was constructed and tested using the phenotypic assay described earlier, and the results were compared to those determined using a genetically defined resistance test vector that was wild type at positions 103 and 230. We determined the pattern of phenotypic susceptibility to the NNRTIs, delavirdine, nevirapine and efavirenz, in the K103N/M230L-RTV. […]

| SMILES | drug-dependent stimulation of viral replication [%] | reduction in susceptibility compared to wild type control RTV [fold] |
| --- | --- | --- |
| O=C1Nc2ccc(Cl)cc2[C@@](C#CC2CC2)(C(F)(F)F)O1 [efavirenz] | ~40 | > 470 |
| CC(C)Nc1cccnc1N1CCN(C(=O)c2cc3cc(NS(C)(=O)=O)ccc3[nH]2)CC1 [delavirdine] | ~100 | > 250 |
| Cc1ccnc2c1NC(=O)c1cccnc1N2C1CC1 [nevirapine] | ~70 | > 600 |
